Test results as given in PubChem BioAssay AID1963435 (Molecular Pharmacology Branch, DTP, NCI, 2024).
Where “and” joins values, the source holds several entries; their conditions need not be identical. Identical values can stand only once.

Tested on: PANC-1 complex spheroid growth, percent test/control
Assay: Anticancer human tumor PANC-1 cell line growth inhibition [Asc];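 also: spheroids exposed to agents for 7 days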;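 as to viability, T/C: percent viability relative to DMSO vehicle wells taken as 100%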
Conditions: for viability, T/C: stronger effect = lower value
Summary of the method: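 Spheroid model: tumor line + HUVEC + hMSC. Single agents and combinations; top conc. at/near clinical Cmax (10 microM if undetermined), half-log dilutions. DMSO stocks at 800-fold test concentration.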

Cc1nc(N2CCC3(CC2)COC(C)C3N)c(CO)nc1Sc1ccnc(N)c1Cl (stereo unspecified) + CCN1C(C(=O)NC23CCC(C(=O)O)(CC2)CC3)C(c2cccc(Cl)c2F)C2(C(=O)Nc3cc(Cl)ccc32)C12CCCCC2
IC50 (curve of first compound, second compound 0.00949 µM): > 3 µM | IC50 (curve of first compound, second compound 0.03 µM): > 3 µM | IC50 (curve of first compound, second compound 0.0949 µM): > 3 µM | IC50 (curve of first compound, second compound 0.3 µM): > 3 µM | IC50 (curve of first compound, second compound 0.949 µM): > 3 µM | IC50 (curve of first compound, second compound 3 µM): > 3 µM | viability, T/C (second compound 0.00949 µM, first compound 0.00949 µM): 109% | viability, T/C (second compound 0.00949 µM, first compound 0.03 µM): 95.8% | viability, T/C (second compound 0.00949 µM, first compound 0.0949 µM): 92.8% | viability, T/C (second compound 0.00949 µM, first compound 0.3 µM): 87.7% | viability, T/C (second compound 0.00949 µM, first compound 0.949 µM): 92.1% | viability, T/C (second compound 0.00949 µM, first compound 3 µM): 92.6% | viability, T/C (second compound 0.03 µM, first compound 0.00949 µM): 102% | viability, T/C (second compound 0.03 µM, first compound 0.03 µM): 101% | viability, T/C (second compound 0.03 µM, first compound 0.0949 µM): 98.7% | viability, T/C (second compound 0.03 µM, first compound 0.3 µM): 89.5% | viability, T/C (second compound 0.03 µM, first compound 0.949 µM): 90% | viability, T/C (second compound 0.03 µM, first compound 3 µM): 94.1% | viability, T/C (second compound 0.0949 µM, first compound 0.00949 µM): 103% | viability, T/C (second compound 0.0949 µM, first compound 0.03 µM): 102% | viability, T/C (second compound 0.0949 µM, first compound 0.0949 µM): 98.6% | viability, T/C (second compound 0.0949 µM, first compound 0.3 µM): 92% | viability, T/C (second compound 0.0949 µM, first compound 0.949 µM): 93.7% | viability, T/C (second compound 0.0949 µM, first compound 3 µM): 91.3% | viability, T/C (second compound 0.3 µM, first compound 0.00949 µM): 98.7% | viability, T/C (second compound 0.3 µM, first compound 0.03 µM): 98.1% | viability, T/C (second compound 0.3 µM, first compound 0.0949 µM): 94.5% | viability, T/C (second compound 0.3 µM, first compound 0.3 µM): 96.7% | viability, T/C (second compound 0.3 µM, first compound 0.949 µM): 106% | viability, T/C (second compound 0.3 µM, first compound 3 µM): 99.2% | viability, T/C (second compound 0.949 µM, first compound 0.00949 µM): 113% | viability, T/C (second compound 0.949 µM, first compound 0.03 µM): 91.9% | viability, T/C (second compound 0.949 µM, first compound 0.0949 µM): 108% | viability, T/C (second compound 0.949 µM, first compound 0.3 µM): 101% | viability, T/C (second compound 0.949 µM, first compound 0.949 µM): 108% | viability, T/C (second compound 0.949 µM, first compound 3 µM): 92.9% | viability, T/C (second compound 3 µM, first compound 0.00949 µM): 115% | viability, T/C (second compound 3 µM, first compound 0.03 µM): 116% | viability, T/C (second compound 3 µM, first compound 0.0949 µM): 103% | viability, T/C (second compound 3 µM, first compound 0.3 µM): 108% | viability, T/C (second compound 3 µM, first compound 0.949 µM): 110% | viability, T/C (second compound 3 µM, first compound 3 µM): 103%

NC1CCC(NC2CC2c2ccccc2)CC1 (stereo unspecified) + Cc1c(S(C)(=O)=O)c(-c2cc(F)cc(N3CCN(c4ccc(NS(=O)(=O)c5ccc(NC(CCN6CCC(C(=O)OCCCP(=O)(O)O)CC6)CSc6ccccc6)c(S(=O)(=O)C(F)(F)F)c5)cc4)CC3)c2)c(-c2ccc(Cl)cc2)n1C(C)C
IC50 (curve of first compound, second compound 0.0316 µM): > 0.1 µM | IC50 (curve of first compound, second compound 0.1 µM): > 0.1 µM | IC50 (curve of first compound, second compound 0.316 µM): > 0.1 µM | IC50 (curve of first compound, second compound 1 µM): > 0.1 µM | IC50 (curve of first compound, second compound 3.16 µM): > 0.1 µM | IC50 (curve of first compound, second compound 10 µM): > 0.1 µM | viability, T/C (second compound 0.0316 µM, first compound 0.000316 µM): 109% | viability, T/C (second compound 0.0316 µM, first compound 0.001 µM): 101% | viability, T/C (second compound 0.0316 µM, first compound 0.00316 µM): 98.1% | viability, T/C (second compound 0.0316 µM, first compound 0.01 µM): 91.4% | viability, T/C (second compound 0.0316 µM, first compound 0.0316 µM): 95.1% | viability, T/C (second compound 0.0316 µM, first compound 0.1 µM): 100% | viability, T/C (second compound 0.1 µM, first compound 0.000316 µM): 109% | viability, T/C (second compound 0.1 µM, first compound 0.001 µM): 98.3% | viability, T/C (second compound 0.1 µM, first compound 0.00316 µM): 101% | viability, T/C (second compound 0.1 µM, first compound 0.01 µM): 107% | viability, T/C (second compound 0.1 µM, first compound 0.0316 µM): 98% | viability, T/C (second compound 0.1 µM, first compound 0.1 µM): 115% | viability, T/C (second compound 0.316 µM, first compound 0.000316 µM): 108% | viability, T/C (second compound 0.316 µM, first compound 0.001 µM): 97.1% | viability, T/C (second compound 0.316 µM, first compound 0.00316 µM): 97.5% | viability, T/C (second compound 0.316 µM, first compound 0.01 µM): 98.5% | viability, T/C (second compound 0.316 µM, first compound 0.0316 µM): 110% | viability, T/C (second compound 0.316 µM, first compound 0.1 µM): 105% | viability, T/C (second compound 1 µM, first compound 0.000316 µM): 104% | viability, T/C (second compound 1 µM, first compound 0.001 µM): 109% | viability, T/C (second compound 1 µM, first compound 0.00316 µM): 121% | viability, T/C (second compound 1 µM, first compound 0.01 µM): 92% | viability, T/C (second compound 1 µM, first compound 0.0316 µM): 112% | viability, T/C (second compound 1 µM, first compound 0.1 µM): 107% | viability, T/C (second compound 3.16 µM, first compound 0.000316 µM): 114% | viability, T/C (second compound 3.16 µM, first compound 0.001 µM): 110% | viability, T/C (second compound 3.16 µM, first compound 0.00316 µM): 102% | viability, T/C (second compound 3.16 µM, first compound 0.01 µM): 108% | viability, T/C (second compound 3.16 µM, first compound 0.0316 µM): 109% | viability, T/C (second compound 3.16 µM, first compound 0.1 µM): 110% | viability, T/C (second compound 10 µM, first compound 0.000316 µM): 168% | viability, T/C (second compound 10 µM, first compound 0.001 µM): 206% | viability, T/C (second compound 10 µM, first compound 0.00316 µM): 176% | viability, T/C (second compound 10 µM, first compound 0.01 µM): 177% | viability, T/C (second compound 10 µM, first compound 0.0316 µM): 174% | viability, T/C (second compound 10 µM, first compound 0.1 µM): 168%

CCN1CCN(Cc2ccc(Nc3ncc(F)c(-c4cc(F)c5nc(C)n(C(C)C)c5c4)n3)nc2)CC1
viability, T/C (compound 0.00316 µM): 98.9% and 103% and 108% | viability, T/C (compound 0.01 µM): 107% and 98.8% and 97.8% | viability, T/C (compound 0.0316 µM): 111% (2×) and 121% | viability, T/C (compound 0.1 µM): 114% and 116% and 118% | viability, T/C (compound 0.316 µM): 122% and 124% and 128% | viability, T/C (compound 1 µM): 135% and 128% and 142% | IC50 (curve of compound): > 1 µM
